“Also recorded” adds a separate entry of the source. d = 2'-deoxy (DNA); m = 2'-O-methyl
Columns and labels:
HSMM myotubes [1] = experiment: Insulin signaling experiments in HSMM myotubes (western blot of phosphorylated Akt, ERK, GSK3β); format: cell-based, human
Protocol: Human HSMM myotubes cells that were plated in 12 well plates the previous week were used. The media was aspirated and fresh media with appropriate dilutions of the NC and H3 siRNA for Hsp90 knockdown were added such that the final concentration in the wells of the plate was 100 nM. Minis TKO transfection reagent was used for transfecting the cells. The plate was then incubated at 37° C. overnight.
The media was aspirated and the cells were washed off twice—first with warm PBS and second with 0.1% BSA containing growth media. The cells were then serum starved for 2-3 hours in 0.1% differentiation media containing the appropriate inhibitors at 37° C. followed by insulin stimulation for 5 minutes (0, 10, and 100 nM insulin).
The wells were then washed once with PBS and harvested into 100 μl of RIPA buffer containing protease and phosphatase inhibitors. The plate was placed on ice and, using a cell scraper, the cells were scraped from the plate. The lysates were collected in 1.5 ml Eppendorf tubes and homogenized by using a syringe and needle. The lysates were then centrifuged at 4° C. for 10 mins at 14,000 RPM. The lysates can be stored at −20° C. for future use.
Protein content was estimated by BCA assay and samples were prepared for gel electrophoresis and western blotting as described in subsequent sections. The total volume required to load 10 μg of total protein was calculated.
The samples were loaded onto a bis-tris or a tris-glycine-SDS gel. Proteins were transferred to a PVDF or a nitrocellulose membrane using routine wet or dry transfer methods. The membranes were then blocked for at least an hour using the blocking buffer. The membranes were then cut prior to exposure to the appropriate primary antibodies diluted in blocking buffer for incubation. Primary antibodies to pAKT (p-Akt, S473), pERK(p-Erk, Phospho-p44/42 MAPK (Erk1/2) (Thr202/Tyr204), and pGSK3β (Phospho-GSK-3β (Ser9) were obtained from Cell Signaling Inc.® Other antibodies were also obtained from commercial sources. The membrane was placed in the shaker and incubated in the refrigerator (4° C.) overnight.
Visualization of proteins and quantification of western blots was performed as follows. The membranes were washed thrice using 1×PBS-T (10 minutes each). […]
Each strip of membrane was taken out arranged in a clean flat surface. […] The bands were quantified using the BIORAD® software.
HSMM myotubes were sequentially (1) transfected with 3 different siRNAs targeting HSP90AB1 for 48 hours, (2) serum starved for 3 hours, and (3) subjected to stimulation of different concentrations of insulin (0, 10, 100 nM). Signaling events downstream of insulin stimulation were assessed by western blotting for levels of total and phosphorylated Akt, Erk, and GSK3β. […]

HSMM myotubes [2] = experiment: Seahorse bioenergetic profiling of myotubes (OCR); format: cell-based, human
HSP90α and HSP90β = conditions: HSP90α vs HSP90β; cited from earlier work
human Hsp90AB1 protein = experiment: Knockdown of Hsp90AB1 protein in HSMM by Western blotting; format: cell-based; conditions: Western blot, normalized to actin, vs NC1
Protocol: ASO1-ASO6 were tested for their ability to knock down human Hsp90AB1 levels in HSMM myotubes. The effectiveness of oligonucleotides ASO1 (A1), ASO2 (A2) ASO3 (A3) ASO4 (A4) ASO5 (A5) and ASO6 (A6) in knocking down the expression of HSP90AB1 protein is shown by Western blotting in FIGS. 19A and 19B. The oligonucleotide NC1 was used as a negative control. HSP90Ab1 protein levels were normalized to the levels of actin.
(§1) The ASO oligonucleotides ASO5, ASO13 and ASO18 were tested for their ability to reduce expression of human Hsp90AB1 protein in human skeletal muscle myotubes (HSMM) and C2C12 mouse myoblasts by Western blotting. ASO5 was derived from the mouse HSP90ab1 gene, while ASO13 and ASO18 were directed to the human HSP90ab1 gene. The oligonucleotide NC1 was used as a negative control. HSP90AB1protein levels were normalized to the levels of actin.

DIO mice [3] = experiment: Heat production in DIO mice; format: in vivo, mouse; conditions: eight weeks treatment
Protocol: The CLAMS (Columbus Instruments, Columbus, Ohio, USA) metabolic monitoring cages are used to simultaneously monitor horizontal and vertical activity, feeding and drinking, oxygen consumption, and CO2 production. ASO injected and control mice are individually placed in CLAMS cages and monitored over a 4-day period after acclimation to the cages for 1-2 days. The various parameters are recorded in both fasted and fed conditions. Food and water consumption are measured directly as accumulated data. Hourly files display all measurements for each parameter: volume of oxygen consumed, ml/kg per h (VO2), volume of carbon dioxide produced, ml/kg per h (VCO2), respiratory exchange ratio, heat (kcal/h), accumulated food (g), accumulated drink (g), XY total activity (all horizontal beam breaks in counts), XY ambulatory activity (minimum three different, consecutive horizontal beam breaks in counts), and Z activity (all vertical beam breaks in counts). The data are recorded during the 30-s sampling period. The CLAMS data are analyzed by normalizing with lean body mass.

[4] = test system: Hsp90AB1 protein in C2C12 mouse myoblasts; experiment: Hsp90AB1 protein expression in C2C12 mouse myoblasts by Western blotting; format: cell-based; conditions: Western blot, normalized to actin, vs NC1
Protocol: as §1

DIO mice [5] = experiment: Insulin level in DIO mice; format: in vivo, mouse
Protocol: The mice were divided into four groups: (1) lean (non-diabetic control); (2) diabetic receiving control ASO (NC-ASO); (3) diabetic receiving ASO5; and (4) diabetic receiving ASO6. In various experiments mice were dosed intra-peritoneally with twice per week injection of ASO at […] body weight for 4 or 8 weeks. Skeletal muscles were subjected to quantitative PCR.
Further, the effect of the reduction of Hsp90ab1 protein level on plasma insulin levels was examined.

CCc1cc(-c2n[nH]c(C)c2-c2ccc3c(c2)OCCO3)c(O)cc1O [CCT018159]
effect on insulin signaling and bioenergetics compared with HSP90β knockdown alone (HSMM myotubes [1]): less profound effect | level of pERK (HSMM myotubes [1]; CCT018159 and insulin): No significant changes; also recorded: no change | level of pGSK3β (HSMM myotubes [1]; CCT018159 and insulin): No significant changes; also recorded: no change | insulin stimulated phosphorylation of Akt (phospho-AKT) (HSMM myotubes [1]; CCT018159 then insulin, effect at the higher concentration, 10 uM): increase; also recorded: significantly enhanced | CCCP induced uncoupling response on mitochondrial metabolism (HSMM myotubes [2]; CCT018159 at 1 μM, 3 μM, and 10 μM (FIG. 10 legend)): did not have a significant effect | uncoupled OCR (HSMM myotubes [2]; myotubes, CCT018159 1 μM): increased | uncoupled (CCCP induced) OCR (HSMM myotubes [2]; myotubes, CCT018159, 10 uM induced greater suppression): decreased in a concentration dependent manner | basal OCR (HSMM myotubes [2]; myotubes, CCT018159 at different concentrations): no observed change

O=C(O)/C=C/c1nn(Cc2ccc(Cl)cc2Cl)c2cc(C(F)(F)F)ccc12 [gamendazole]
HSP90 isoform preference (HSP90α and HSP90β): specific for HSP90β

C[C@@H]1C[C@H]2O[C@@H]2/C=C\C=C\C(=O)Cc2c(Cl)c(O)cc(O)c2C(=O)O1 [radicicol]
HSP90 isoform preference (HSP90α and HSP90β): HSP90β is more sensitive

NVP-HS990
HSP90 isoform preference (HSP90α and HSP90β): inhibit both the HSP90α and HSP90β isoforms

mA*mC*mU*mU*mC*mC*T*T*G*A*C*C*C*T*C*C*T*C*mU*mC*mC*mU*mC*mC (antisense ACUUCCTTGACCCTCCTCUCCUCC; sugars from the 5' end m6 d12 m6, all phosphorothioate, methylation of C not given here) [ASO3, modified antisense oligonucleotide derived from the mouse HSP90AB1 gene]
level of HSP90ab1 protein (human Hsp90AB1 protein): effective

mA*mU*mC*mU*mC*mC*T*T*C*T*C*C*C*G*T*T*C*C*mU*mU*mC*mU*mC*mC (antisense AUCUCCTTCTCCCGTTCCUUCUCC; sugars from the 5' end m6 d12 m6, all phosphorothioate, methylation of C not given here) [ASO2, modified antisense oligonucleotide derived from the mouse HSP90AB1 gene]
level of HSP90ab1 protein (human Hsp90AB1 protein): effective | heat production (DIO mice [3]): improves

mA*mU*mG*mC*mC*mC*T*G*A*A*T*T*C*C*A*A*C*T*mG*mA*mC*mC*mU*mU (antisense AUGCCCTGAATTCCAACTGACCUU; sugars from the 5' end m6 d12 m6, all phosphorothioate, methylation of C not given here) [ASO18, modified ASO designed on homology among mouse, monkey and human HSP90ab1 genes]
level of HSP90ab1 protein (human Hsp90AB1 protein): significantly decreased; also recorded: significantly reduced | Hsp90AB1 protein expression [4]: significantly decreased; also recorded: significantly reduced

mC*mC*mA*mC*mU*mU*C*C*T*T*G*A*C*C*C*T*C*C*mU*mC*mU*mC*mC*mU (antisense CCACUUCCTTGACCCTCCUCUCCU; sugars from the 5' end m6 d12 m6, all phosphorothioate, methylation of C not given here) [ASO5, modified antisense oligonucleotide derived from the mouse HSP90AB1 gene]
Hsp90AB1 protein expression [4]: did not significantly reduce | fed insulin levels (DIO mice [5]): significant reduction

mC*mU*mC*mU*mU*mC*C*T*C*T*G*C*C*T*C*A*T*C*mA*mU*mC*mA*mC*mU (antisense CUCUUCCTCTGCCTCATCAUCACU; sugars from the 5' end m6 d12 m6, all phosphorothioate, methylation of C not given here) [ASO13, modified ASO designed on homology among mouse, monkey and human HSP90ab1 genes]
level of HSP90ab1 protein (human Hsp90AB1 protein): significantly decreased; also recorded: significantly reduced | Hsp90AB1 protein expression [4]: significantly decreased; also recorded: significantly reduced

mC*mU*mU*mC*mC*mU*T*G*A*C*C*C*T*C*C*T*C*T*mC*mC*mU*mC*mC*mA (antisense CUUCCUTGACCCTCCTCTCCUCCA; sugars from the 5' end m6 d12 m6, all phosphorothioate, methylation of C not given here) [ASO4, modified antisense oligonucleotide derived from the mouse HSP90AB1 gene]
level of HSP90ab1 protein (human Hsp90AB1 protein): effective

mU*mC*mU*mC*mC*mU*T*C*T*C*C*C*G*T*T*C*C*T*mU*mC*mU*mC*mC*mA (antisense UCUCCUTCTCCCGTTCCTUCUCCA; sugars from the 5' end m6 d12 m6, all phosphorothioate, methylation of C not given here) [ASO1, modified antisense oligonucleotide derived from the mouse HSP90AB1 gene]
level of HSP90ab1 protein (human Hsp90AB1 protein): effective | heat production (DIO mice [3]): improves

— patent publication US10023864B2, “Methods of treating a metabolic syndrome by modulating heat shock protein (HSP) 90-beta” (Berg LLC, priority 2014, dated 2018)
